# Experimental data published in ChEMBL document CHEMBL1157697, “Novel ester and acid derivatives of the 1,5-diarylpyrrole scaffold as anti-inflammatory and analgesic agents. Synthesis and in vitro and in vivo biological evaluation” (J Med Chem, 2010).
# Active and inactive are the calls of the source. The calls are words filed in the database; no cut-off is given here.
# Key:
# Mus musculus [1] = species on record: Mus musculus; assay: Selectivity index, ratio of IC50 for mouse COX1 to IC50 for mouse COX2
# Rattus norvegicus [2] = assay: Antiinflammatory activity against carrageenan-induced paw edema rat inflammatory model assessed as paw pressure at 20 mg/kg, po after 30 mins; assay type: functional
# Rattus norvegicus [3] = assay: Antiinflammatory activity against carrageenan-induced paw edema rat inflammatory model assessed as paw pressure at 20 mg/kg, po after 60 mins; assay type: functional
# Rattus norvegicus [4] = assay: Antiinflammatory activity against carrageenan-induced paw edema rat inflammatory model assessed as paw pressure at 20 mg/kg, po after 120 mins; assay type: functional
# Rattus norvegicus [5] = assay: Antiinflammatory activity against carrageenan-induced paw edema rat inflammatory model assessed as paw volume at 20 mg/kg, po after 60 mins; assay type: functional
# Rattus norvegicus [6] = assay: Antiinflammatory activity against carrageenan-induced paw edema rat inflammatory model assessed as suppression of paw edema at 20 mg/kg, po after 60 mins; assay type: functional
# [7] = Metabolic stability in human liver microsomes at 10 uM; assay type: ADME, Microsome; conditions: read-out: Stability
# [8] = Metabolic stability in human liver microsomes at 0.1 uM; assay type: ADME, Microsome; conditions: read-out: Stability
# [9] = target: T1, Prostaglandin G/H synthase 1 (Mus musculus, UniProt P22437)
# T1 sequence (P22437 whole entry): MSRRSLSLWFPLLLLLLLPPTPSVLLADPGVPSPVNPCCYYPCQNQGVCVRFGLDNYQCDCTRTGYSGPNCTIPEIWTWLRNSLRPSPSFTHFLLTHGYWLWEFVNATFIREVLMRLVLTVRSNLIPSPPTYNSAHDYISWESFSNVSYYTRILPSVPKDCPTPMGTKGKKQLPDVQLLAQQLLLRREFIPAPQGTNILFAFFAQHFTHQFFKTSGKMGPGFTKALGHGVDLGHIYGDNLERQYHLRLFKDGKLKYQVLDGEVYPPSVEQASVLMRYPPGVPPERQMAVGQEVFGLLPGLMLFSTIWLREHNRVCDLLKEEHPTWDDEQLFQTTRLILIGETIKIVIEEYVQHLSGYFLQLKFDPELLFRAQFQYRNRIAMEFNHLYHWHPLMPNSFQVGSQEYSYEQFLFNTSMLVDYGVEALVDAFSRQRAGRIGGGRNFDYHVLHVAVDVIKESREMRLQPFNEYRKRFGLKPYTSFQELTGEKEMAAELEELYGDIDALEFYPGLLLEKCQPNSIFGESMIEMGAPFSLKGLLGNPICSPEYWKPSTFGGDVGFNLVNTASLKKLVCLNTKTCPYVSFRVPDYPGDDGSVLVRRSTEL
# Description: Inhibition of COX1-dependent PGE2 production in LPS-stimulated mouse J774 cells by RIA
# [10] = target: T2, Prostaglandin G/H synthase 2 (Mus musculus, UniProt Q05769)
# T2 sequence (Q05769 whole entry): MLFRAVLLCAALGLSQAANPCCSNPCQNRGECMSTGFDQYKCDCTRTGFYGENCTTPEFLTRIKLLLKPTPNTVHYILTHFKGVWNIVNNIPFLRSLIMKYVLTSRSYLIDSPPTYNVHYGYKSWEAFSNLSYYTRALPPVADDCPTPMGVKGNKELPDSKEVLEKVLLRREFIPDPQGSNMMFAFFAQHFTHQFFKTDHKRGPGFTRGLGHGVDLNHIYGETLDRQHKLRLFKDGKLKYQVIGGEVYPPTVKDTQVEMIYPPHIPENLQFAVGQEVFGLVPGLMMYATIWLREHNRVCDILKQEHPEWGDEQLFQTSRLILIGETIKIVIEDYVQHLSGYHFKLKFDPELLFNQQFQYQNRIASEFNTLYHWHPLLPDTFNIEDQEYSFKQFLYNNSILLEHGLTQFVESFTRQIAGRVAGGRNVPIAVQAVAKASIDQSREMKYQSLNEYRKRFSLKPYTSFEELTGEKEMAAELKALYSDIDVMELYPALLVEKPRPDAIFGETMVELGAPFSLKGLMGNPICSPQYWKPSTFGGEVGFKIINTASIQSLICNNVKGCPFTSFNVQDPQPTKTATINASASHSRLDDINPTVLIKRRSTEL
# Description: Inhibition of COX2-dependent PGE2 production in LPS-stimulated mouse J774 cells by RIA
# Mus musculus [11] = assay: Analgesic activity against acetic acid-induced mouse abdominal constriction assessed as writhing at 20 mg/kg, po; conditions: Abdomen
# Mus musculus [12] = assay: Analgesic activity against acetic acid-induced mouse abdominal constriction assessed as writhing at 10 mg/kg, po; conditions: Abdomen
# [13] = target: Prostaglandin G/H synthase 1 (Homo sapiens, UniProt P23219); assay: Inhibition of COX1 in human whole blood assessed as thromboxane B2 production by RIA; assay type: tissue-based
# [14] = target: T3, Prostaglandin G/H synthase 2 (Homo sapiens, UniProt P35354); assay: Inhibition of COX2 in human whole blood assessed as inhibition of LPS-induced PGE2 production by RIA; assay type: tissue-based
# T3 sequence (P35354 whole entry): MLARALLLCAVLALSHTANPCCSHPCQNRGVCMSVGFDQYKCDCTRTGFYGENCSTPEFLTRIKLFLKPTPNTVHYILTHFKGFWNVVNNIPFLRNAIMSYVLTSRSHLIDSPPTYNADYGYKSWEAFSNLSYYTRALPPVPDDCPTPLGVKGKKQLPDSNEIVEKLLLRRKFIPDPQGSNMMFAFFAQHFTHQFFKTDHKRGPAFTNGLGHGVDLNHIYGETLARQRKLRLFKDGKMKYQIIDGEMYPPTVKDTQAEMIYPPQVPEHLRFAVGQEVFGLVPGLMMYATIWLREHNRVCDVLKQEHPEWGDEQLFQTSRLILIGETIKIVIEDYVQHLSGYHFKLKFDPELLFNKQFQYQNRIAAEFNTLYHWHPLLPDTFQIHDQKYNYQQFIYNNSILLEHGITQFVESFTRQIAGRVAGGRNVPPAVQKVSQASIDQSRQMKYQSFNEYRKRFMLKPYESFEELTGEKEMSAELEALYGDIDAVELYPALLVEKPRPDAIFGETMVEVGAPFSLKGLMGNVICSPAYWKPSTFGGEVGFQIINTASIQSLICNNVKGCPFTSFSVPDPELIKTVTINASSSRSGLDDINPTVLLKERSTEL
# Mus musculus [15] = assay: Analgesic activity against acetic acid-induced po dosed mouse abdominal constriction assessed as writhing; conditions: Abdomen
# Mus musculus [16] = species on record: Mus musculus; assay: Toxicity in Swiss mouse assessed as number of falls in 30 seconds after 30 mins by rotarod test; assay type: organism-based; conditions: in vivo, 0.5 h
# Mus musculus [17] = species on record: Mus musculus; assay: Toxicity in Swiss mouse assessed as number of falls in 30 seconds after 45 mins by rotarod test; assay type: organism-based; conditions: in vivo, 0.75 h
# Mus musculus [18] = species on record: Mus musculus; assay: Toxicity in Swiss mouse assessed as number of falls in 30 seconds after 60 mins by rotarod test; assay type: organism-based; conditions: in vivo, 1 h
# [19] = Oral bioavailability in Sprague-Dawley rat at 10 mg/kg; assay type: ADME, organism-based; conditions: in vivo
# [20] = Clearance in Sprague-Dawley rat at 10 mg/kg, iv; assay type: ADME, organism-based; design: dose 10 mg/kg, route intravenous; conditions: in vivo
# Rattus norvegicus [21] = assay: Rate of blood flow in Sprague-Dawley rat at 10 mg/kg, iv; assay type: ADME, organism-based; design: dose 10 mg/kg, route intravenous; conditions: in vivo
# [22] = Volume of distribution in Sprague-Dawley rat at 10 mg/kg, iv; assay type: ADME, organism-based; design: dose 10 mg/kg, route intravenous; conditions: in vivo
# Mus musculus [23] = species on record: Mus musculus; assay: Toxicity in Swiss mouse assessed as number of falls in 30 seconds after 15 mins by rotarod test; assay type: organism-based; conditions: in vivo, 0.25 h
# Rattus norvegicus [24] = assay: Antiinflammatory activity against carrageenan-induced paw edema rat inflammatory model assessed as paw volume at 10 mg/kg, po after 60 mins; assay type: functional
# Rattus norvegicus [25] = assay: Antiinflammatory activity against carrageenan-induced paw edema rat inflammatory model assessed as paw pressure at 10 mg/kg, po after 30 mins; assay type: functional
# Rattus norvegicus [26] = assay: Antiinflammatory activity against carrageenan-induced paw edema rat inflammatory model assessed as paw pressure at 10 mg/kg, po after 60 mins; assay type: functional
# Rattus norvegicus [27] = assay: Antiinflammatory activity against carrageenan-induced paw edema rat inflammatory model assessed as paw pressure at 10 mg/kg, po after 120 mins; assay type: functional
# Rattus norvegicus [28] = assay: Antiinflammatory activity against carrageenan-induced paw edema rat inflammatory model assessed as suppression of paw edema at 10 mg/kg, po after 60 mins; assay type: functional
# Rattus norvegicus [29] = species on record: Rattus norvegicus; assay: Analgesic activity against zymosan-induced hyperalgesia in rat assessed maximum effect measured up to 2 hrs
# Rattus norvegicus [30] = species on record: Rattus norvegicus; assay: Analgesic activity against zymosan-induced hyperalgesia in rat assessed maximum effect measured up to 6 hrs
# Rattus norvegicus [31] = assay: Antiinflammatory activity against carrageenan-induced paw edema rat inflammatory model assessed as paw volume at 10 mg/kg, po after 60 mins
# Prostaglandin G/H synthase 1 (Homo sapiens, UniProt P23219), sequence (P23219 whole entry): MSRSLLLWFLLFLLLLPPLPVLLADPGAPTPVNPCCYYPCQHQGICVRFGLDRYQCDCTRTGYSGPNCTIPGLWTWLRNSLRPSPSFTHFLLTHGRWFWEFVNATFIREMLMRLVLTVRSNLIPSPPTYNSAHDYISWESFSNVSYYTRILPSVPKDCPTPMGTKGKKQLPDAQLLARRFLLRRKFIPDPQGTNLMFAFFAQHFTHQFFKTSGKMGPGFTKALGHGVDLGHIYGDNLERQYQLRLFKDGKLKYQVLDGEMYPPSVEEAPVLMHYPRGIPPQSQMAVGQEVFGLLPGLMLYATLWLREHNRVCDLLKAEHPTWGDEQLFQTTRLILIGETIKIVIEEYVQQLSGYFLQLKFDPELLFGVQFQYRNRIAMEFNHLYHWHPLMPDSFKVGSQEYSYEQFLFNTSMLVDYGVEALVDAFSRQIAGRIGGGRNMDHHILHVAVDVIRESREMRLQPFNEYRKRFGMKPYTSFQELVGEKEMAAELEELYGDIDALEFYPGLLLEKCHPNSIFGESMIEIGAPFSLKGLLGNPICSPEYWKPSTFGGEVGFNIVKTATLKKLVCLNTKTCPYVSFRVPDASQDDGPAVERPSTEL
SMILES,Ratio IC50 (Mus musculus [1]),Activity (Rattus norvegicus [2]) [g],Activity (Rattus norvegicus [3]) [g],Activity (Rattus norvegicus [4]) [g],Activity (Rattus norvegicus [5]) [mL],Activity (Rattus norvegicus [6]) [%],remaining at 10 µM [7] [%],remaining at 0.1 µM [8] [%],IC50 [9] [µM],IC50 [10] [µM],Activity (Mus musculus [11]),IC50 [13] [µM],IC50 [14] [µM],Activity (Mus musculus [15]),Activity (Rattus norvegicus [29]) [%],Activity (Rattus norvegicus [30]) [%],also measured
CCCCOC(=O)Cc1cc(-c2ccc(S(C)(=O)=O)cc2)n(-c2ccc(OC)cc2)c1C,> 2600,53.4,51.4,50.8,1.45,89.1,2,5,> 100,0.038,Active,–,–,–,–,–,Activity (Mus musculus [12]): Active
Cc1c(CC(=O)OC(C)C)cc(-c2ccc(S(C)(=O)=O)cc2)n1-c1cccc(F)c1,> 2300,59.5,57.9,45.2,1.31,87.2,1,0,> 100,0.043,–,24,2,Dose-dependent effect,–,–,–
Cc1c(CC(=O)OC(C)C)cc(-c2ccc(S(C)(=O)=O)cc2)n1-c1ccccc1,–,–,–,–,–,–,1,11,> 100,0.0073,–,20,2.5,Dose-dependent effect,75,70,Activity (Mus musculus [16]): Non-toxic; Activity (Mus musculus [17]): Non-toxic; Activity (Mus musculus [18]): Non-toxic; bioavailability [19]: 42%; clearance [20]: 33.3 mL/min; LBF (Rattus norvegicus [21]): 0.8 L/h; Vd [22]: 5.6 L; Activity (Mus musculus [23]): Non-toxic; Activity (Rattus norvegicus [24]): 1.26 mL; Activity (Rattus norvegicus [25]): 56.2 g; Activity (Rattus norvegicus [26]): 51.8 g; Activity (Rattus norvegicus [27]): 48.8 g; Activity (Rattus norvegicus [28]): 100%
Cc1c(CC(=O)O)cc(-c2ccc(S(C)(=O)=O)cc2)n1-c1cccc(F)c1,> 3500,54.8,55.2,43.1,1.35,93.6,100,100,> 100,0.028,Active,125,17,Dose-dependent effect,–,–,–
Cc1c(CC(=O)O)cc(-c2ccc(S(C)(=O)=O)cc2)n1-c1ccccc1,> 100,48.6,51.8,41.6,1.86,42.7,97,94,–,–,–,132,7,–,–,–,–
Cc1ccc(-c2cc(C(F)(F)F)nn2-c2ccc(S(N)(=O)=O)cc2)cc1 [CELECOXIB],–,56.5,58.2,55.2,–,95.5,–,–,–,–,–,–,–,–,30,35,Activity (Rattus norvegicus [31]): 1.33 mL
